Data set [1] can be described thus: Therapeutic index for the compound was determined (IC50/EC50). The following applies: read-out: TI.
Data set [2] has as its system MT2. In words: Inhibitory concentration that reduces formazan production in uninfected MT-2 cells. Particulars: Homo sapiens.
The subject of another data set is P388. In words: Inhibitory concentration of compound for P-388 Leukemia cell culture. It is filed as functional. Particulars: Mus musculus, read-out: ED50 (the source's name).
Data set [3] has as its system MT2. In words: Effective concentration that increases formazan production in infected MT-2 cells. It is filed as functional, cell-based. The following applies: Homo sapiens.
Data set [4] concerns CCRF-CEM. Description: Inhibitory effect against synthesis of p24 gag protein in CEM cells. It is filed as functional, Homo sapiens.
In data set [5] the test system is CCRF-CEM. In words: Percent reduction in p24 gag expression in CEM cells. The class given is functional, Homo sapiens.

The structures appear in SMILES notation. In brackets after ≈: the same amount, converted by molar mass.

In general, IC50 refers to the concentration at which inhibition is half-maximal. Read a high IC50 as weaker potency in that assay. Regarding `Nc1nc(N)c2ncn(C3C=CC(CO)C3)c2n1` (stereo not given), the selectivity ratio in data set [1] is greater than 26.6. This compound registered an IC50 with MT2 [2] greater than 125 µg/mL. Moreover, the EC50 was greater than 100 µg/mL in the data set on P388 and 4.7 µg/mL (≈ 19.1 µM) in the data set on MT2 [3].
`Nc1nc(N)c2nnn(C3C=CC(CO)C3)c2n1` (stereo not given): in the data set on P388, the EC50 was greater than 100 µg/mL.
Consider `Nc1nc(O)c2nnn(C3C=CC(CO)C3)c2n1` (stereo not given), for which, in the data set on P388, the EC50 is 4.5 µg/mL (≈ 18.1 µM).
With `Nc1nc(Cl)c2ncn(C3CCC(CO)C3)c2n1` (stereo not given), the IC50 in the data set with MT2 [2] was greater than 100 µg/mL. Further, the EC50 with P388 and in the data set on MT2 [3] was greater than 100 µg/mL throughout.
For the compound `Nc1nc(O)c2nnn(C3CCC(CO)C3)c2n1` (stereo not given), the EC50 in the data set on P388 worked out at 51 µg/mL (≈ 204 µM).
Still for that read-out and setting: to `Nc1nc(Cl)c2nnn(C3C=CC(CO)C3)c2n1` (stereo not given) belongs 1 µg/mL (≈ 3.75 µM); to `Nc1nc(N)c2nnn(C3CCC(CO)C3)c2n1` (stereo not given), greater than 100 µg/mL; to `Nc1nc(Cl)c2nnn(C3CCC(CO)C3)c2n1` (stereo not given), 18 µg/mL (≈ 67 µM).
With `Nc1nc(Cl)c2ncn(C3C=CC(CO)C3)c2n1` (stereo not given), the selectivity ratio in data set [1] was determined as 17.3. In addition, the IC50 with MT2 [2] came out at 6.97 µg/mL (≈ 26.2 µM). Also, the figures for the EC50 in the data set on P388 and with MT2 [3] were 75 µg/mL (≈ 282 µM) and 0.4 µg/mL (≈ 1.51 µM), respectively.
In the data set with MT2 [2], `Nc1nc(O)c2ncn(C3CCC(CO)C3)c2n1` (stereo not given) returned an IC50 greater than 100 µg/mL. For the same compound, the EC50 with P388 and with MT2 [3] was greater than 100 µg/mL throughout.
Consider `Nc1nc(N)c2ncn(C3CCC(CO)C3)c2n1` (stereo not given), for which the selectivity ratio in data set [1] was greater than 5.9. In the data set with MT2 [2], this compound returned an IC50 greater than 100 µg/mL. The EC50 with P388 worked out at 80 µg/mL (≈ 322 µM); in the data set with MT2 [3], 16.7 µg/mL (≈ 67.3 µM).
Turning to `Nc1nc2c(ncn2[C@H]2C=C[C@@H](CO)C2)c(=O)[nH]1` [CARBOVIR], the selectivity ratio in data set [1] amounted to 220. This compound also displayed a p24 synthesis in the data set on CCRF-CEM [4] of 28 ng/mL. In addition, half-maximal inhibition in the data set on MT2 [2] (IC50) was put at 41.8 µg/mL (≈ 169 µM). Further, the Reduction with CCRF-CEM [5] was greater than 99.97%. Moreover, the EC50 in the data set with P388 is greater than 100 µg/mL; in the data set on MT2 [3], 0.19 µg/mL (≈ 0.768 µM).
For `Nc1ccn([C@H]2CC[C@@H](CO)O2)c(=O)n1` [ZALCITABINE], the selectivity ratio in data set [1] is 152. Also, in the data set with MT2 [2], inhibition was half-maximal at 44 µg/mL (≈ 208 µM) (IC50). The same compound yielded an EC50 in the data set on MT2 [3] of 0.29 µg/mL (≈ 1.37 µM).
`Cc1cn([C@H]2C[C@H](N=[N+]=[N-])[C@@H](CO)O2)c(=O)[nH]c1=O` [ZIDOVUDINE] came in with a p24 synthesis in the data set with CCRF-CEM [4] of 32 ng/mL. For the same compound, the Reduction in the data set on CCRF-CEM [5] is greater than 99.96%.

Values taken from ChEMBL document CHEMBL1125065, “Synthesis and anti-HIV activity of carbocyclic 2',3'-didehydro-2',3'-dideoxy 2,6-disubstituted purine nucleosides” (J Med Chem, 1990).
